# According to PubChem BioAssay (NCI):
#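 Test compounds were applied to cells in 96-well plates for 48 hours at 5 doses. Here, GI50 denotes the concentration required for 50% inhibition of growth. TGI: concentration producing complete growth inhibition.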
# Assays:
# Test in all cases: growth of human tumour cells (NCI), 48 h
# HT29 colon = tested on: HT29 colon
# MCF7 breast = tested on: MCF7 breast
# RPMI-8226 leukemia = tested on: RPMI-8226 leukemia
# NCI-H522 lung = tested on: NCI-H522 lung
# U251 CNS = tested on: U251 CNS
# OVCAR-3 ovarian = tested on: OVCAR-3 ovarian
# NCI-H23 lung = tested on: NCI-H23 lung
# T-47D breast = tested on: T-47D breast
# NCI-H226 lung = tested on: NCI-H226 lung
# RXF 393 renal = tested on: RXF 393 renal
# LOX IMVI melanoma = tested on: LOX IMVI melanoma
# HOP-62 NSCLC = tested on: HOP-62 NSCLC
# COLO 205 colon = tested on: COLO 205 colon
# CCRF-CEM leukemia = tested on: CCRF-CEM leukemia
# KM12 colon = tested on: KM12 colon
# SW-620 colon = tested on: SW-620 colon
# SNB-75 CNS = tested on: SNB-75 CNS
# HCC-2998 colon = tested on: HCC-2998 colon
# 786-0 renal = tested on: 786-0 renal
# SF-295 CNS = tested on: SF-295 CNS
# OVCAR-5 ovarian = tested on: OVCAR-5 ovarian
# UACC-62 melanoma = tested on: UACC-62 melanoma
# K-562 leukemia = tested on: K-562 leukemia
# HS 578T breast = tested on: HS 578T breast
# PC-3 prostate = tested on: PC-3 prostate
# SK-MEL-5 melanoma = tested on: SK-MEL-5 melanoma
# UO-31 renal = tested on: UO-31 renal
# TK-10 renal = tested on: TK-10 renal
# A549 NSCLC = tested on: A549 NSCLC
# SK-OV-3 ovarian = tested on: SK-OV-3 ovarian
# SK-MEL-28 melanoma = tested on: SK-MEL-28 melanoma
# MALME-3M melanoma = tested on: MALME-3M melanoma
# NCI-H460 lung = tested on: NCI-H460 lung
# MDA-MB-435 = tested on: MDA-MB-435
# A498 renal = tested on: A498 renal
# SR leukemia = tested on: SR leukemia
# HCT-15 colon = tested on: HCT-15 colon
# DU-145 prostate = tested on: DU-145 prostate
# CAKI-1 renal = tested on: CAKI-1 renal
# MOLT-4 leukemia = tested on: MOLT-4 leukemia
# MDA-MB-468 breast = tested on: MDA-MB-468 breast
# OVCAR-4 ovarian = tested on: OVCAR-4 ovarian
# OVCAR-8 ovarian = tested on: OVCAR-8 ovarian
# EKVX NSCLC = tested on: EKVX NSCLC
# HOP-92 NSCLC = tested on: HOP-92 NSCLC
# IGROV1 ovarian = tested on: IGROV1 ovarian
# SF-268 CNS = tested on: SF-268 CNS
# HCT-116 colon = tested on: HCT-116 colon
# BT-549 breast = tested on: BT-549 breast
# ACHN renal = tested on: ACHN renal
# UACC-257 melanoma = tested on: UACC-257 melanoma
# SN12C renal = tested on: SN12C renal
# SF-539 CNS = tested on: SF-539 CNS
# M14 melanoma = tested on: M14 melanoma
# MDA-MB-231 breast = tested on: MDA-MB-231 breast
# SNB-19 CNS = tested on: SNB-19 CNS
# HL-60(TB) leukemia = tested on: HL-60(TB) leukemia
smiles,measurement,setting,value
O=C(COc1ccc(NC(=O)Nc2ccc(Cl)cc2)cc1)N/N=C/c1ccccc1,GI50,HT29 colon,31.2 µM
same,TGI,HT29 colon,> 100 µM
same,GI50,MCF7 breast,3.88 µM
same,TGI,MCF7 breast,> 100 µM
same,GI50,RPMI-8226 leukemia,63.9 µM
same,TGI,RPMI-8226 leukemia,> 100 µM
same,GI50,NCI-H522 lung,7.74 µM
same,TGI,NCI-H522 lung,> 100 µM
same,GI50,U251 CNS,4.05 µM
same,TGI,U251 CNS,> 100 µM
same,GI50,OVCAR-3 ovarian,4.15 µM
same,TGI,OVCAR-3 ovarian,54.2 µM
same,GI50,NCI-H23 lung,4.21 µM
same,TGI,NCI-H23 lung,25.9 µM
same,GI50,T-47D breast,8.22 µM
same,TGI,T-47D breast,> 100 µM
same,GI50,NCI-H226 lung,2.85 µM
same,TGI,NCI-H226 lung,9.82 µM
same,GI50,RXF 393 renal,4.55 µM
same,TGI,RXF 393 renal,19 µM
same,GI50,LOX IMVI melanoma,7.1 µM
same,TGI,LOX IMVI melanoma,> 100 µM
same,GI50,HOP-62 NSCLC,2.62 µM
same,TGI,HOP-62 NSCLC,11.1 µM
same,GI50,COLO 205 colon,19 µM
same,TGI,COLO 205 colon,> 100 µM
same,GI50,CCRF-CEM leukemia,21.8 µM
same,TGI,CCRF-CEM leukemia,> 100 µM
same,GI50,KM12 colon,> 100 µM
same,TGI,KM12 colon,> 100 µM
same,GI50,SW-620 colon,6.03 µM
same,TGI,SW-620 colon,> 100 µM
same,GI50,SNB-75 CNS,3.95 µM
same,TGI,SNB-75 CNS,24.3 µM
same,GI50,HCC-2998 colon,22.5 µM
same,TGI,HCC-2998 colon,> 100 µM
same,GI50,786-0 renal,6.26 µM
same,TGI,786-0 renal,24.9 µM
same,GI50,SF-295 CNS,2.69 µM
same,TGI,SF-295 CNS,13.7 µM
same,GI50,OVCAR-5 ovarian,> 100 µM
same,TGI,OVCAR-5 ovarian,> 100 µM
same,GI50,UACC-62 melanoma,2.82 µM
same,TGI,UACC-62 melanoma,13.7 µM
same,GI50,K-562 leukemia,12.6 µM
same,TGI,K-562 leukemia,> 100 µM
same,GI50,HS 578T breast,7.71 µM
same,TGI,HS 578T breast,54.2 µM
same,GI50,PC-3 prostate,2.81 µM
same,TGI,PC-3 prostate,21.2 µM
same,GI50,SK-MEL-5 melanoma,8.49 µM
same,TGI,SK-MEL-5 melanoma,> 100 µM
same,GI50,UO-31 renal,86.4 µM
same,TGI,UO-31 renal,> 100 µM
same,GI50,TK-10 renal,20.2 µM
same,TGI,TK-10 renal,63.8 µM
same,GI50,A549 NSCLC,4.67 µM
same,TGI,A549 NSCLC,> 100 µM
same,GI50,SK-OV-3 ovarian,6.06 µM
same,TGI,SK-OV-3 ovarian,25.8 µM
same,GI50,SK-MEL-28 melanoma,3.87 µM
same,TGI,SK-MEL-28 melanoma,43.1 µM
same,GI50,MALME-3M melanoma,4.44 µM
same,TGI,MALME-3M melanoma,71.7 µM
same,GI50,NCI-H460 lung,3.22 µM
same,TGI,NCI-H460 lung,> 100 µM
same,GI50,MDA-MB-435,3.76 µM
same,TGI,MDA-MB-435,> 100 µM
same,GI50,A498 renal,20.1 µM
same,TGI,A498 renal,50.9 µM
same,GI50,SR leukemia,4.59 µM
same,TGI,SR leukemia,33.1 µM
same,GI50,HCT-15 colon,5.85 µM
same,TGI,HCT-15 colon,> 100 µM
same,GI50,DU-145 prostate,4.51 µM
same,TGI,DU-145 prostate,> 100 µM
same,GI50,CAKI-1 renal,15 µM
same,TGI,CAKI-1 renal,> 100 µM
same,GI50,MOLT-4 leukemia,59.5 µM
same,TGI,MOLT-4 leukemia,> 100 µM
same,GI50,MDA-MB-468 breast,3.23 µM
same,TGI,MDA-MB-468 breast,10.6 µM
same,GI50,OVCAR-4 ovarian,3.34 µM
same,TGI,OVCAR-4 ovarian,68.7 µM
same,GI50,OVCAR-8 ovarian,3.81 µM
same,TGI,OVCAR-8 ovarian,> 100 µM
same,GI50,EKVX NSCLC,6.09 µM
same,TGI,EKVX NSCLC,90.8 µM
same,GI50,HOP-92 NSCLC,3 µM
same,TGI,HOP-92 NSCLC,16 µM
same,GI50,IGROV1 ovarian,14.1 µM
same,TGI,IGROV1 ovarian,> 100 µM
same,GI50,SF-268 CNS,16.2 µM
same,TGI,SF-268 CNS,99.8 µM
same,GI50,HCT-116 colon,1.68 µM
same,TGI,HCT-116 colon,12.6 µM
same,GI50,BT-549 breast,4.41 µM
same,TGI,BT-549 breast,56.2 µM
same,GI50,ACHN renal,4.64 µM
same,TGI,ACHN renal,37.6 µM
same,GI50,UACC-257 melanoma,17.4 µM
same,TGI,UACC-257 melanoma,> 100 µM
same,GI50,SN12C renal,7.64 µM
same,TGI,SN12C renal,> 100 µM
same,GI50,SF-539 CNS,6.23 µM
same,TGI,SF-539 CNS,27.4 µM
same,GI50,M14 melanoma,5.02 µM
same,TGI,M14 melanoma,> 100 µM
same,GI50,MDA-MB-231 breast,8.57 µM
same,TGI,MDA-MB-231 breast,47.6 µM
same,GI50,SNB-19 CNS,4.42 µM
same,TGI,SNB-19 CNS,20.7 µM
same,GI50,HL-60(TB) leukemia,> 100 µM
same,TGI,HL-60(TB) leukemia,> 100 µM
O=C1C(=O)c2ccccc2-c2ccccc21,GI50,MDA-MB-468 breast,1.7 µM
same,TGI,MDA-MB-468 breast,3.53 µM
O=C1c2cc3c(cc2-c2c1c1ccc(Cl)cc1c(=O)n2C[C@H](O)[C@@H](O)[C@H](O)CO)OCO3,GI50,MDA-MB-468 breast,0.0189 µM
same,TGI,MDA-MB-468 breast,0.0459 µM
CCCCCCCC/C=C/CCCCCCCC1=NC(C)(C)CN1C(C)C,GI50,MDA-MB-468 breast,1.31 µM
same,TGI,MDA-MB-468 breast,2.7 µM
COc1ccc(N(CC(=O)NCCC[Te]c2ccccc2)C(=O)CCSC2=C(C)C(=O)c3ccccc3C2=O)cc1,GI50,MDA-MB-468 breast,1.67 µM
same,TGI,MDA-MB-468 breast,3.39 µM
O=C(O)c1ccc2c(c1Nc1ccccc1)C(=O)c1ccccc1C2=O,GI50,MDA-MB-468 breast,31.8 µM
same,TGI,MDA-MB-468 breast,> 100 µM
COc1ccc(-c2nn(-c3cccc(NC(=O)Nc4ccc(Cl)c(C(F)(F)F)c4)c3)cc2-c2ccncc2)cc1Cl,GI50,MDA-MB-468 breast,1.63 µM
same,TGI,MDA-MB-468 breast,6.78 µM
COc1ccc(-c2cnc3ccnn3c2-c2cc(OC)c(OC)c(OC)c2)cc1,GI50,MDA-MB-468 breast,2.64 µM
same,TGI,MDA-MB-468 breast,> 100 µM
O=C(Nc1ccccc1)Nc1cccc(-n2cc(-c3ccncc3)c(-c3ccc(O)c(Cl)c3)n2)c1,GI50,MDA-MB-468 breast,3.22 µM
same,TGI,MDA-MB-468 breast,12.2 µM
C/C(CC(=O)NNc1ccc([N+](=O)[O-])cc1)=N\Nc1ccc([N+](=O)[O-])cc1,GI50,MDA-MB-468 breast,28.1 µM
same,TGI,MDA-MB-468 breast,> 100 µM
C=C1C(=O)O[C@H]2[C@H]1CC/C(COC(=O)CCCCCCCCC(=O)OC/C1=C/CC[C@@]3(C)O[C@H]3[C@H]3OC(=O)C(=C)[C@@H]3CC1)=C\CC[C@@]1(C)O[C@@H]21,GI50,MDA-MB-468 breast,2.27 µM
same,TGI,MDA-MB-468 breast,5.15 µM
Cc1cccc2c(N=Nc3ccc(S(N)(=O)=O)cc3)c(O)[nH]c12,GI50,MDA-MB-468 breast,> 25 µM
same,TGI,MDA-MB-468 breast,> 25 µM
CCN(CC)CCOc1ccc(/C(=C(\C)Cc2ccc(OC)cc2)c2ccc(OC(=O)NCc3ccccc3)cc2)cc1,GI50,MDA-MB-468 breast,1.9 µM
same,TGI,MDA-MB-468 breast,3.96 µM
COc1cc(/C=C/C(=O)c2ccc(Nc3ncnc4ccccc34)cc2)cc(OC)c1,GI50,MDA-MB-468 breast,2.2 µM
same,TGI,MDA-MB-468 breast,10.7 µM
CCOC(=O)/C(=C/c1ccc([N+](=O)[O-])cc1)C(=O)c1ccccc1,GI50,MDA-MB-468 breast,2.31 µM
same,TGI,MDA-MB-468 breast,4.6 µM
CCCc1cc2cc(-n3nc(C)c4c3CC(C)(C)CC4=O)cc(NC3CCC(O)CC3)c2c(=O)[nH]1 (centres undefined),GI50,MDA-MB-468 breast,0.0475 µM
same,TGI,MDA-MB-468 breast,> 100 µM
